According to US3984554A, “Animal fodder compositions containing a 4-amino-pyrimido-( 4,5,b)-quinoxaline-5,10-dioxide and method of using same” (Bayer Aktiengesellschaft, priority 1970, dated 1976):
≈ marks a conversion by molar mass, not a printed value.

Columns and labels:
Escherichia coli A 261 = assay: Minimum inhibitory concentration (MIC) in the plate test; format: cell-based; conditions: A261, pH 7.4
From the text: (§1) The compounds according to the invention are effective against Gram-negative and Gram-positive bacteria. Favorable inhibition values are obtained in the plate test (Table 1) against staphylococci and streptococci which are Gram-positive bacteria, and against enterobacteria (for example Escherichia coli, Proteus and Klebsiella) which are Gram-negative bacteria.
(§2) Minimum inhibitory concentration (MIC) in the plate test:
(§3) The medium used had the following composition
(§4) Disodium phosphate 2.0 g
(§5) Adenine sulphate 0.01 g
(§6) Guanine hydrochloride 0.01 g
(§7) 1000 ml of distilled water
(§8) pH value of the medium:
(§9) Minimum inhibitory concentrations in γ/ml

Escherichia coli C 165 = assay: as above; format: cell-based; conditions: C165, pH 7.4
From the text: as §1, §2, §3, §4, §5, §6, §7, §8, §9

Proteus vulgaris = assay: as above; format: cell-based; conditions: pH 7.4
From the text: as §1, §2, §3, §4, §5, §6, §7, §8, §9

Klebsiella 8085 = assay: as above; format: cell-based; conditions: pH 7.4
From the text: as §1, §2, §3, §4, §5, §6, §7, §8, §9

[1] = tested on: Staphylococcus aureus 133; assay: as above; format: cell-based; conditions: pH 7.4
From the text: as §1, §2, §3, §4, §5, §6, §7, §8, §9

[2] = tested on: Pseudomonas aeruginosa Bonn; assay: as above; format: cell-based; conditions: pH 7.4
From the text: as §1, §2, §3, §4, §5, §6, §7, §8, §9

Streptococcus pyogenes W = assay: as above; format: cell-based; conditions: pH 7.4
From the text: as §1, §2, §3, §4, §5, §6, §7, §8, §9

[3] = Chick fattening experiment (fodder additive); format: in vivo; conditions: chicks, 20 ppm in fodder; for Ratio of total weight increase/control: control 100.0
From the text: The good effectiveness of the compounds according to the invention as fodder additives can be seen from the chick fattening experiment described below (Table 2).
The substances, ground with the fodder, were fed to one-day old chicks. The feeding lasted for seven weeks. Table 2 below gives the experimental data for the compound obtainable according to Example 2, for each of the 7 weeks.

SMILES	MIC (Escherichia coli A 261)	MIC (Escherichia coli C 165)	MIC (Proteus vulgaris)	MIC (Klebsiella 8085)	MIC [1]	MIC [2]	MIC (Streptococcus pyogenes W)	also measured
[O-][n+]1c2ccccc2[n+]([O-])c2c(NCCO)ncnc21 [Example 7]	100 µg/mL (≈ 366 µM)	100 µg/mL (≈ 366 µM)	100 µg/mL (≈ 366 µM)	150 µg/mL (≈ 549 µM)	100 µg/mL (≈ 366 µM)	100 µg/mL (≈ 366 µM)	10 µg/mL (≈ 36.6 µM)	–
CC(C)Nc1ncnc2c1[n+]([O-])c1ccccc1[n+]2[O-] [Example 4]	100 µg/mL (≈ 369 µM)	100 µg/mL (≈ 369 µM)	100 µg/mL (≈ 369 µM)	–	10 µg/mL (≈ 36.9 µM)	150 µg/mL (≈ 553 µM)	20 µg/mL (≈ 73.7 µM)	–
CCCNc1ncnc2c1[n+]([O-])c1ccccc1[n+]2[O-] [Example 3]	100 µg/mL (≈ 369 µM)	100 µg/mL (≈ 369 µM)	100 µg/mL (≈ 369 µM)	100 µg/mL (≈ 369 µM)	10 µg/mL (≈ 36.9 µM)	150 µg/mL (≈ 553 µM)	20 µg/mL (≈ 73.7 µM)	–
CNc1ncnc2c1[n+]([O-])c1ccccc1[n+]2[O-] [Example 1, 4-methylamino-pyrimido-(4,5,b)-quinoxaline-5,10-dioxide]	5 µg/mL (≈ 20.6 µM)	5 µg/mL (≈ 20.6 µM)	5 µg/mL (≈ 20.6 µM)	5 µg/mL (≈ 20.6 µM)	2.5 µg/mL (≈ 10.3 µM)	50 µg/mL (≈ 206 µM)	20 µg/mL (≈ 82.2 µM)	–
[O-][n+]1c2ccccc2[n+]([O-])c2c(NC3CCCCC3)ncnc21 [Example 6]	–	–	–	–	10 µg/mL (≈ 32.1 µM)	–	–	–
CCCCNc1ncnc2c1[n+]([O-])c1ccccc1[n+]2[O-] [Example 5]	–	–	–	–	10 µg/mL (≈ 35 µM)	–	20 µg/mL (≈ 70.1 µM)	–
CCNc1ncnc2c1[n+]([O-])c1ccccc1[n+]2[O-] [Example 2]	20 µg/mL (≈ 77.7 µM)	160 µg/mL (≈ 622 µM)	10 µg/mL (≈ 38.9 µM)	10 µg/mL (≈ 38.9 µM)	5 µg/mL (≈ 19.4 µM)	150 µg/mL (≈ 583 µM)	20 µg/mL (≈ 77.7 µM)	Total weight increase ([3]; week 1, control 84): 92 g; Ratio of total weight increase/control ([3]; week 1): 109.5%; Ratio of total weight increase/control ([3]; week 2): 105.6%; Total weight increase ([3]; week 2, control 248): 262 g; Ratio of total weight increase/control ([3]; week 3): 108.6%; Total weight increase ([3]; week 3, control 429): 466 g; Ratio of total weight increase/control ([3]; week 4): 111.7%; Total weight increase ([3]; week 4, control 607): 678 g; Ratio of total weight increase/control ([3]; week 5): 107.7%; Total weight increase ([3]; week 5, control 922): 993 g; Ratio of total weight increase/control ([3]; week 6): 104.8%; Total weight increase ([3]; week 6, control 1250): 1310 g; Ratio of total weight increase/control ([3]; week 7): 106.4%; Total weight increase ([3]; week 7, control 1479): 1574 g
